Test results as given in patent US8173704B2, “Difluorophenol derivatives and their use” (Bayer Pharma Aktiengesellschaft, priority 2005, dated 2012).
Blank lines part the entries; values can stand above or below the molecule they belong to.

Experiments:
saphenous artery rings = assay: Vasorelaxant effect in vitro (phenylephrine-contracted artery rings); assay type: cell-based; details: rabbit saphenous artery rings, contraction induced by phenylephrine
Protocol: Rabbits are anesthetized and sacrificed by intravenous injection of thiopental sodium (about 50 mg/kg) and exsanguinated. The saphenous artery is removed and divided into rings 3 mm wide. The rings are mounted singly on in each case a pair of triangular hooks open at the end and made of 0.3 mm-thick special wire (Remanium®). Each ring is placed under an initial tension in 5 ml organ baths with Krebs-Henseleit solution which is at 37° C., is gassed with 95% O2/5% CO2 and has the following composition: NaCl 119 mM; KCl 4.8 mM; CaCl2×2H2O 1 mM; MgSO4×7 H2O 1.4 mM; KH2PO4 1.2 mM; NaHCO3 25 mM; glucose 10 mM; bovine serum albumin 0.001%. The force of contraction is detected with Statham UC2 cells, amplified and digitized via A/D converters (DAS-1802 HC, Keithley Instruments, Munich) and recorded in parallel on chart recorders. Contractions are induced by addition of phenylephrine.
After several (generally 4) control cycles, the substance to be investigated is added in each further run in increasing dosage, and the height of the contraction achieved under the influence of the test substance is compared with the height of the contraction reached in the last preceding run. The concentration necessary to reduce the contraction reached in the preceding control by 50% is calculated from this (IC50). The standard application volume is 5 μl. The proportion of DMSO in the bath solution corresponds to 0.1%.

[1] = molecular target: T1, Heme-containing sGC (recombinant soluble guanylate cyclase) (Rattus norvegicus, UniProt P20595); assay: Stimulation of recombinant soluble guanylate cyclase (sGC) in vitro, heme-containing enzyme; assay type: biochemical
T1 construct: made in house; host or cells: baculovirus/Sf9 insect cells
T1 sequence (P20595 1-619): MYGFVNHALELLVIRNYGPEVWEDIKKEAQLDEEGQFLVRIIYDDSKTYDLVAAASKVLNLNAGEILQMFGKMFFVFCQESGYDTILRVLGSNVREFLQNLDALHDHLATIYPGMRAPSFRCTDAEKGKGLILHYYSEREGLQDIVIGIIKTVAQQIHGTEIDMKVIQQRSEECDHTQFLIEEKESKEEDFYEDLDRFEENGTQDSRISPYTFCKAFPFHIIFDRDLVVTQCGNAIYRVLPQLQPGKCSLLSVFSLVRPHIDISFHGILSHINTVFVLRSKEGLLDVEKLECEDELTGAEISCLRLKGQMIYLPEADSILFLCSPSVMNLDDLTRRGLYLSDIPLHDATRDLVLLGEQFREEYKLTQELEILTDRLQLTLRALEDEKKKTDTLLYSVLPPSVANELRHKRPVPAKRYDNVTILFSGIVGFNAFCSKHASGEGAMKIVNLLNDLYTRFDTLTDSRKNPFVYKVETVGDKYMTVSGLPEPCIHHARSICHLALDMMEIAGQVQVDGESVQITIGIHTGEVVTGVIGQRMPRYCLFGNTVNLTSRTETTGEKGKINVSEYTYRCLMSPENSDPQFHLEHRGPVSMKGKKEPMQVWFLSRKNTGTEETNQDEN
T1 sequence (P19686 1-690 partner): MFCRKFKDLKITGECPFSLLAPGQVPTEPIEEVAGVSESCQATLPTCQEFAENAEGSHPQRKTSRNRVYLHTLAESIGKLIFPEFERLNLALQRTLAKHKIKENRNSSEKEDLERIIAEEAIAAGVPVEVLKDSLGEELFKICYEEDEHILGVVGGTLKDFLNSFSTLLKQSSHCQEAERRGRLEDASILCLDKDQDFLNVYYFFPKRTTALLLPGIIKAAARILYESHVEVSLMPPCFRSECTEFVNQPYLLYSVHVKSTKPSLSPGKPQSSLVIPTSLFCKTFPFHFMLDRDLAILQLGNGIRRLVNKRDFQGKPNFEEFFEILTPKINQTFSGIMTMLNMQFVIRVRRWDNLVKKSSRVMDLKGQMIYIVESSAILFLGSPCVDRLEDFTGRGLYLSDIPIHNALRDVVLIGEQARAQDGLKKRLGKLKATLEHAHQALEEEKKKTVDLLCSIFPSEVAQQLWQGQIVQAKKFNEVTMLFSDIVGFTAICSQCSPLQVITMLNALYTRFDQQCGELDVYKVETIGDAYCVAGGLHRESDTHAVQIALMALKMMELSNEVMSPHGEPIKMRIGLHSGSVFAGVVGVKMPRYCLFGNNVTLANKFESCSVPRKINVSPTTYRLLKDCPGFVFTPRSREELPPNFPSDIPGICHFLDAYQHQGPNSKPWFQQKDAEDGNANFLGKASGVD
From the text: Hoenicka, E. M. Becker, H. Apeler, T. Sirichoke, H. Schroeder, R. Gerzer and J.-P. Stasch, “Purified soluble guanylyl cyclase expressed in a baculovirus/Sf9 system: Stimulation by YC-1, nitric oxide, and carbon oxide”, J. Mol. Med. 77 (1999), 14-23. The heme-free guanylate cyclase is obtained by adding Tween 20 to the sample buffer (0.5% in the final concentration).
(§1) The activation of sGC by a test substance is reported as n-fold stimulation of the basal activity.

[2] = molecular target: T2, Heme-free sGC (recombinant soluble guanylate cyclase) (Rattus norvegicus, UniProt P20595); assay: Stimulation of recombinant soluble guanylate cyclase (sGC) in vitro, heme-free enzyme; assay type: biochemical
T2 construct: made in house; host or cells: baculovirus/Sf9 insect cells
T2 sequence (P20595 1-619): T1 sequence (P20595 1-619)
T2 sequence (P19686 1-690 partner): T1 sequence (P19686 1-690 partner)
Protocol: Investigations on the stimulation of recombinant soluble guanylate cyclase (sGC) by the compounds according to the invention with and without sodium nitroprusside, and with and without the heme-dependent sGC inhibitor 1H-1,2,4-oxadiazole-(4,3a)-quinoxalin-1-one (ODQ) are carried out by the method described in detail in the following reference: M. Hoenicka, E. M. Becker, H. Apeler, T. Sirichoke, H. Schroeder, R. Gerzer and J.-P. Stasch, “Purified soluble guanylyl cyclase expressed in a baculovirus/Sf9 system: Stimulation by YC-1, nitric oxide, and […]”, J. Mol. Med. 77 (1999), 14-23. The heme-free guanylate cyclase is obtained by adding Tween 20 to the sample buffer (0.5% in the final concentration).
as §1

[3] = 0.001 μM Example 13 + 10 μM ODQ

IC50 (saphenous artery rings): 960 nM
SMILES: O=C(O)CCCCC(/C=C/c1cc(F)ccc1OCc1ccc(-c2ccc(C(F)(F)F)cc2)cc1)Cc1cc(F)c(O)c(F)c1 (single isomer, unassigned) [Example 4, E-6-(3,5-Difluoro-4-hydroxybenzyl)-8-[5-fluoro-2-(4′-trifluoromethylbiphenyl-4-ylmethoxy)phenyl]oct-7-enoic acid]

IC50 (saphenous artery rings): 300 nM
SMILES: O=C(O)CCCCC(/C=C/c1cc(F)ccc1OCc1ccc(-c2ccc(C(F)(F)F)cc2)cc1)Cc1cc(F)c(O)c(F)c1 (single isomer, unassigned) [Example 5, E-6-(3,5-Difluoro-4-hydroxybenzyl)-8-[5-fluoro-2-(4′-trifluoromethylbiphenyl-4-ylmethoxy)phenyl]oct-7-enoic acid]

IC50 (saphenous artery rings; Oryctolagus cuniculus): 2700 nM
SMILES: O=C(O)CCCCC(/C=C\c1cc(F)ccc1OCc1ccc(-c2ccc(C(F)(F)F)cc2)cc1)Cc1cc(F)c(O)c(F)c1 (single isomer, unassigned) [Example 6, Z-6-(3,5-Difluoro-4-hydroxybenzyl)-8-[5-fluoro-2-(4′-trifluoromethylbiphenyl-4-ylmethoxy)phenyl]oct-7-enoic acid]

IC50 (saphenous artery rings): 2600 nM
SMILES: O=C(O)CCCCC(/C=C\c1cc(F)ccc1OCc1ccc(-c2ccc(C(F)(F)F)cc2)cc1)Cc1cc(F)c(O)c(F)c1 (single isomer, unassigned) [Example 7, Z-6-(3,5-Difluoro-4-hydroxybenzyl)-8-[5-fluoro-2-(4′-trifluoromethylbiphenyl-4-ylmethoxy)phenyl]oct-7-enoic acid]

IC50 (saphenous artery rings; Oryctolagus cuniculus): 647 nM
SMILES: O=C(O)CCCCC(/C=C/c1cc(F)ccc1OCc1ccccc1Cl)Cc1cc(F)c(O)c(F)c1 (single isomer, unassigned) [Example 8, E-8-[2-(2-Chlorobenzyloxy)-5-fluorophenyl]-6-(3,5-difluoro-4-hydroxybenzyl)oct-7-enoic acid]

Stimulation (n-fold) of heme-containing sGC, Basal ([1]; 0.001 μM Example 13): 1.7 n-fold
Stimulation (n-fold) of heme-containing sGC, +0.1 μM DEA/NO ([1]; 0.001 μM Example 13 + 0.1 μM DEA/NO): 26.3 n-fold
Stimulation (n-fold) of heme-containing sGC, +10 μM ODQ [1, 3]: 37.5 n-fold
Stimulation (n-fold) of heme-containing sGC, Basal ([1]; 0.01 μM Example 13): 6.7 n-fold
Stimulation (n-fold) of heme-containing sGC, +0.1 μM DEA/NO ([1]; 0.01 μM Example 13 + 0.1 μM DEA/NO): 31.2 n-fold
Stimulation (n-fold) of heme-containing sGC, +10 μM ODQ ([1]; 0.01 μM Example 13 + 10 μM ODQ): 38.8 n-fold
Stimulation (n-fold) of heme-containing sGC, Basal ([1]; 0.1 μM Example 13): 19.2 n-fold
Stimulation (n-fold) of heme-containing sGC, +0.1 μM DEA/NO ([1]; 0.1 μM Example 13 + 0.1 μM DEA/NO): 40.2 n-fold
Stimulation (n-fold) of heme-containing sGC, +10 μM ODQ ([1]; 0.1 μM Example 13 + 10 μM ODQ): 43.8 n-fold
Stimulation (n-fold) of heme-containing sGC, Basal ([1]; 1 μM Example 13): 24.2 n-fold
Stimulation (n-fold) of heme-containing sGC, +0.1 μM DEA/NO ([1]; 1 μM Example 13 + 0.1 μM DEA/NO): 43.2 n-fold
Stimulation (n-fold) of heme-containing sGC, +10 μM ODQ ([1]; 1 μM Example 13 + 10 μM ODQ): 52.2 n-fold
Stimulation (n-fold) of heme-containing sGC, Basal ([1]; 10 μM Example 13): 36.2 n-fold
Stimulation (n-fold) of heme-containing sGC, +0.1 μM DEA/NO ([1]; 10 μM Example 13 + 0.1 μM DEA/NO): 62.0 n-fold
Stimulation (n-fold) of heme-containing sGC, +10 μM ODQ ([1]; 10 μM Example 13 + 10 μM ODQ): 63.7 n-fold
Effect of combination with the NO donor DEA/NO on sGC stimulation ([1]; combination with DEA/NO): no synergistic effect
Effect of the heme-dependent sGC inhibitor ODQ on the sGC activation ([1]; with ODQ, effect is in fact increased): not blocked
Stimulation (n-fold) of heme-free sGC, Basal ([2]; 0.001 μM Example 13): 4.1 n-fold
Stimulation (n-fold) of heme-free sGC, +10 μM ODQ [2, 3]: 4.0 n-fold
Stimulation (n-fold) of heme-free sGC, Basal ([2]; 0.01 μM Example 13): 30.6 n-fold
Stimulation (n-fold) of heme-free sGC, +10 μM ODQ ([2]; 0.01 μM Example 13 + 10 μM ODQ): 27.1 n-fold
Stimulation (n-fold) of heme-free sGC, Basal ([2]; 0.1 μM Example 13): 94.4 n-fold
Stimulation (n-fold) of heme-free sGC, +10 μM ODQ ([2]; 0.1 μM Example 13 + 10 μM ODQ): 88.6 n-fold
Stimulation (n-fold) of heme-free sGC, Basal ([2]; 1 μM Example 13): 122.8 n-fold
Stimulation (n-fold) of heme-free sGC, +10 μM ODQ ([2]; 1 μM Example 13 + 10 μM ODQ): 118.5 n-fold
Stimulation (n-fold) of heme-free sGC, Basal ([2]; 10 μM Example 13): 126.3 n-fold
Stimulation (n-fold) of heme-free sGC, +10 μM ODQ ([2]; 10 μM Example 13 + 10 μM ODQ): 118.4 n-fold
IC50 (saphenous artery rings): 24.5 nM
SMILES: CC(C)(C)c1ccc(COc2ccccc2/C=C/C(CCc2ccc(C(=O)O)cc2)Cc2cc(F)c(O)c(F)c2)cc1 (single isomer, unassigned) [Example 13, E4-[5-[2-(4-tert-Butylbenzyloxy)phenyl]-3-(3,5-difluoro-4-hydroxybenzyl)pent-4-enyl]benzoic acid]

IC50 (saphenous artery rings): 1220 nM
SMILES: CC(C)(C)c1ccc(COc2ccccc2/C=C/C(CCc2ccc(C(=O)O)cc2)Cc2cc(F)c(O)c(F)c2)cc1 (single isomer, unassigned) [Example 14, E-4-[5-[2-(4-tert-Butylbenzyloxy)phenyl]-3-(3,5-difluoro-4-hydroxybenzyl)pent-4-enyl]benzoic acid]

IC50 (saphenous artery rings; Oryctolagus cuniculus): 43 nM
SMILES: O=C(O)CCCCN(CCc1cc(F)ccc1OCc1ccc(-c2ccc(C(F)(F)F)cc2)cc1)Cc1cc(F)c(O)c(F)c1 [Example 18, 5-{(3,5-Difluoro-4-hydroxybenzyl)-[2-(5-fluoro-2-{[4′-(trifluoromethyl)biphenyl-4-yl]methoxy}phenyl)ethyl]amino}pentanoic acid]
